Values joined by “and” are separate entries in the source; they are usually repeats but may differ in a detail not shown here. Equal entries are not always repeated. Where two headings read alike, the source gives them in different places.
Tests used:
Test in all cases: GloSensor cAMP assay, inhibition of constitutive activity
Assay type in all cases: cell-based
[1] = biological target: T1, constitutively active EP2 T82A (Homo sapiens, UniProt P43116, T82A)
T1 construct: The full-length EP2 or EP4 was cloned into the pcDNA3.1 vector; FLAG (N); expressed in transfected cells; host or cells: AD293 cells
Method: (§1) The full-length EP2 or EP4 was cloned into the pcDNA3.1 vector (Invitrogen), incorporating an N-terminal FLAG tag. AD293 cells were seeded in six-well plates containing DMEM supplemented with 10% dialyzed FBS 1 day prior to transfection. Following overnight growth, cells were transfected with a 1:1 ratio of receptor construct and GloSensor22F cAMP biosensor (Promega) plasmids.
(§2) Twenty-four hours post-transfection, the cells were transferred to CO2-independent media containing 2% GloSensor cAMP Reagent (Promega) and distributed into 384-well assay plates at a density of 4000 cells per well in 10 μL. […] The plates were then incubated at 37 °C for an additional hour before luminescence measurements were taken using an EnVision plate reader.
(§3) Data analysis was performed using GraphPad Prism software v8.0.1. A nonlinear regression analysis, employing a sigmoidal dose–response model, was conducted to determine the Emax values and half-maximum inhibitory concentrations (IC50) for each compound tested.

[2] = biological target: T2, constitutively active EP4 S319A (Homo sapiens, UniProt P35408, S319A)
T2 construct: The full-length EP2 or EP4 was cloned into the pcDNA3.1 vector (Invitrogen), incorporating an N-terminal FLAG tag; expressed in transfected cells; host or cells: AD293
Method: as §1, §2, §3

[3] = biological target: T3, constitutively active EP2 M116A (Homo sapiens, UniProt P43116, M116A)
T3 construct: The full-length EP2 or EP4 was cloned into the pcDNA3.1 vector; FLAG (N); expressed in transfected cells; host or cells: AD293 cells
Method: as §1, §2, §3

[4] = biological target: T4, constitutively active EP2 S308A (Homo sapiens, UniProt P43116, S308A)
T4 construct: The full-length EP2 or EP4 was cloned into the pcDNA3.1 vector; FLAG (N); expressed in transfected cells; host or cells: AD293 cells
Method: as §1, §2, §3

[5] = biological target: T5, constitutively active EP4 V72A (Homo sapiens, UniProt P35408, V72A)
T5 construct: The full-length EP2 or EP4 was cloned into the pcDNA3.1 vector (Invitrogen), incorporating an N-terminal FLAG tag; expressed in transfected cells; host or cells: AD293
Method: as §1, §2, §3

[6] = biological target: T6, constitutively active EP2 WT (Homo sapiens, UniProt P43116)
T6 construct: The full-length EP2 or EP4 was cloned into the pcDNA3.1 vector; FLAG (N); expressed in transfected cells; host or cells: AD293 cells
Method: as §1, §2, §3

[7] = biological target: T7, constitutively active EP2 S86A (Homo sapiens, UniProt P43116, S86A)
T7 construct: The full-length EP2 or EP4 was cloned into the pcDNA3.1 vector; FLAG (N); expressed in transfected cells; host or cells: AD293 cells
Method: as §1, §2, §3

[8] = no PGE2, pIC50 mutant - pIC50 WT, mean

T2 sequence (P35408 whole entry S319A): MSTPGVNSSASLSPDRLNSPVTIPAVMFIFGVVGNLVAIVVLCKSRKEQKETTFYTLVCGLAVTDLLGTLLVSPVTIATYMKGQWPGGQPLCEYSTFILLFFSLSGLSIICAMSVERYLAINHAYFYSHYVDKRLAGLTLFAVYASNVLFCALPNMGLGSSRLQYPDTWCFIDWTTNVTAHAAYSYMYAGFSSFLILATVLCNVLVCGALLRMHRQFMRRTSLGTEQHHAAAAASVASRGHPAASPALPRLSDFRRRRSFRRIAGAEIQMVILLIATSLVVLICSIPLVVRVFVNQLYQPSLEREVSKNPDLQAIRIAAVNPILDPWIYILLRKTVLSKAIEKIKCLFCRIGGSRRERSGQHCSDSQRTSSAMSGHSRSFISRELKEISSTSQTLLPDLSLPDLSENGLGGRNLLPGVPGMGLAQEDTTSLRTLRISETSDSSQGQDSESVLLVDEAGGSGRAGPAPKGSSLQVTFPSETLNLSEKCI
T5 sequence (P35408 whole entry V72A): as the sequence (P35408 whole entry S319A) above, with V72A, A319S counted along it
T1 sequence (P43116 whole entry T82A): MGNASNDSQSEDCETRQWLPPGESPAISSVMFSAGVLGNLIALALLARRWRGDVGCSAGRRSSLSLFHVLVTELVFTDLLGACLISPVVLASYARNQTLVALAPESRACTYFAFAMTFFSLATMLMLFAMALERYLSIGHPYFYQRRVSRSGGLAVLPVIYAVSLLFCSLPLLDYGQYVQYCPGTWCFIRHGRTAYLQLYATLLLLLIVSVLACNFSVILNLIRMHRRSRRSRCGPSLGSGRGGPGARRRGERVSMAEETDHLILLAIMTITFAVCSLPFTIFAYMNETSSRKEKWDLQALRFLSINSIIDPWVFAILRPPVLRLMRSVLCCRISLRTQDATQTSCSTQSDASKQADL
T4 sequence (P43116 whole entry S308A): as the sequence (P43116 whole entry T82A) above, with A82T, S308A counted along it
T6 sequence (P43116 whole entry): as the sequence (P43116 whole entry T82A) above, with A82T counted along it
T3 sequence (P43116 whole entry M116A): as the sequence (P43116 whole entry T82A) above, with A82T, M116A counted along it
T7 sequence (P43116 whole entry S86A): as the sequence (P43116 whole entry T82A) above, with A82T, S86A counted along it

IC50 [1]: 219 nM
TG6-129 cAMP activity (∆pIC50 from EP2 WT), Mean ([1]; T82A, Mean): -0.316
TG6-129 cAMP activity (∆pIC50 from EP2 WT) ([1]; T82A, single experiments 1st-3rd): -0.298 and -0.466 and -0.185
IC50 [2]: 20000 nM
remaining activity at 100 µM ([2]; 1 h, TG6-129 log([M]) -4.00, EP4-S319A, read-out: % cAMP activity (normalized to WT)): 6.8%
remaining activity at […] ([2]; 1 h, TG6-129 log([M]) -4.70, EP4-S319A, read-out: % cAMP activity (normalized to WT)): 46.6%
remaining activity at 0.006457 µM ([2]; 1 h, TG6-129 log([M]) -8.19, EP4-S319A, read-out: % cAMP activity (normalized to WT)): 114%
remaining activity at 0.001288 µM ([2]; 1 h, TG6-129 log([M]) -8.89, EP4-S319A, read-out: % cAMP activity (normalized to WT)): 108%
TG6-129 cAMP activity (∆pIC50 from EP4 WT), Mean ([2]; S319A, Mean): -0.460
TG6-129 cAMP activity (∆pIC50 from EP4 WT) ([2]; S319A, single experiments 1st-3rd): -0.435 and -0.502 and -0.443
ΔpIC50 [2, 8]: -0.46 ± 0.02
IC50 [3]: 490 nM
remaining activity at 1 µM ([3]; 1 h, TG6-129 log([M]) -6, EP2-M116A, read-out: % cAMP activity (normalized to WT)): 94.8%
TG6-129 cAMP activity (∆pIC50 from EP2 WT), Mean ([3]; M116A, Mean): -0.618
TG6-129 cAMP activity (∆pIC50 from EP2 WT) ([3]; M116A, single experiments 1st-3rd): -0.597 and -0.614 and -0.642
ΔpIC50 [3, 8]: -0.62 ± 0.01
IC50 [4]: 58.9 nM
remaining activity at 0.0001 µM ([4]; 1 h, TG6-129 log([M]) -10, EP2-S308A, read-out: % cAMP activity (normalized to WT)): 87.7%
TG6-129 cAMP activity (∆pIC50 from EP2 WT), Mean ([4]; S308A, Mean): 0.246
IC50 [5]: 18600 nM
remaining activity at 100 µM ([5]; 1 h, TG6-129 log([M]) -4.00, EP4-V72A, read-out: % cAMP activity (normalized to WT)): 9.67%
remaining activity at […] ([5]; 1 h, TG6-129 log([M]) -4.70, EP4-V72A, read-out: % cAMP activity (normalized to WT)): 26.1%
remaining activity at […] ([5]; 1 h, TG6-129 log([M]) -5.40, EP4-V72A, read-out: % cAMP activity (normalized to WT)): 41.3%
remaining activity at […] ([5]; 1 h, TG6-129 log([M]) -6.10, EP4-V72A, read-out: % cAMP activity (normalized to WT)): 40.6%
remaining activity at 0.1585 µM ([5]; 1 h, TG6-129 log([M]) -6.80, EP4-V72A, read-out: % cAMP activity (normalized to WT)): 44.9%
remaining activity at 0.03236 µM ([5]; 1 h, TG6-129 log([M]) -7.49, EP4-V72A, read-out: % cAMP activity (normalized to WT)): 51.4%
remaining activity at 0.006457 µM ([5]; 1 h, TG6-129 log([M]) -8.19, EP4-V72A, read-out: % cAMP activity (normalized to WT)): 46.4%
remaining activity at 0.001288 µM ([5]; 1 h, TG6-129 log([M]) -8.89, EP4-V72A, read-out: % cAMP activity (normalized to WT)): 40.4%
TG6-129 cAMP activity (∆pIC50 from EP4 WT), Mean ([5]; V72A, Mean): -0.480
TG6-129 cAMP activity (∆pIC50 from EP4 WT) ([5]; V72A, single experiments 1st-3rd): -0.475 and -0.451 and -0.514
ΔpIC50 [5, 8]: -0.48 ± 0.02
IC50 [6]: 87.1 nM
remaining activity at 10 µM ([6]; 1 h, TG6-129 log([M]) -5, EP2-WT, read-out: % cAMP activity (normalized to WT)): 3.2%
remaining activity at 1 µM ([6]; 1 h, TG6-129 log([M]) -6, EP2-WT, read-out: % cAMP activity (normalized to WT)): 6.32%
remaining activity at 0.1 µM ([6]; 1 h, TG6-129 log([M]) -7, EP2-WT, read-out: % cAMP activity (normalized to WT)): 34.4%
remaining activity at 0.001 µM ([6]; 1 h, TG6-129 log([M]) -9, EP2-WT, read-out: % cAMP activity (normalized to WT)): 94.3%
remaining activity at 0.0001 µM ([6]; 1 h, TG6-129 log([M]) -10, EP2-WT, read-out: % cAMP activity (normalized to WT)): 104%
remaining activity at 10 pM ([6]; 1 h, TG6-129 log([M]) -11, EP2-WT, read-out: % cAMP activity (normalized to WT)): 100%
remaining activity at 1 pM ([6]; 1 h, TG6-129 log([M]) -12, EP2-WT, read-out: % cAMP activity (normalized to WT)): 88.6%
TG6-129 cAMP activity (∆pIC50 from EP2 WT) ([6]; WT, single experiments 1st-3rd): -0.062 and 0.053 and 0.096
IC50 [7]: 603 nM
TG6-129 cAMP activity (∆pIC50 from EP2 WT), Mean ([7]; S86A, Mean): -0.670
Structure (SMILES): CCc1nnc(NS(=O)(=O)c2ccc(NC(=S)NC(=O)/C=C/c3ccc(F)cc3)cc2)s1 [TG6-129]

— PMC12669672, “Structural insights into selective and dual antagonism of EP2 and EP4 prostaglandin receptors” (The EMBO Journal, 2025)
